Source: publication PMC6756013, “B591, a novel specific pan-PI3K inhibitor, preferentially targets cancer stem cells” (Oncogene, 2019)

What was measured:
Assay in all cases: Biochemical kinase profiling (Life Technologies)
[1] = biological target: AKT1 (PKB alpha) (Homo sapiens, UniProt P31749)
Procedure: (§1) Purified PI3K Class I Lipid Kinase, including p110α/p85α, p110β/p85α, p110γ, and p110δ/p85α (Promega, Madison, WI, USA), was respectively incubated with B591 for 30 min at room temperature. The activity of PI3K was evaluated using a PI3-Kinase Activity ELISA kit (K-1000s, Echelon, Salt Lake City, UT, USA) according to the manufacture’s instructions. The assay is a competitive ELISA in which the signal is inversely proportional to the amount of PI(3,4,5)P3 produced. After the PI3-Kinase reactions are complete, reaction products are first mixed and incubated with a PI(3,4,5)P3 detector protein, then added to the PI(3,4,5)P3-coated microplate for competitive binding. A peroxidase-linked secondary detector and colorimetric detection is used to detect PI(3,4,5)P3 detector binding to the plate. The colorimetric signal is inversely proportional to the amount of PI(3,4,5)P3 produced by PI3-Kinase. The absorbance was measured at 450 nm with a Multilabel Reader (PerkinElmer, Waltham, MA, USA). ATP competition assays were executed with varying concentrations of ATP, and five concentrations of ATP were 5 μM, 25 μM, 50 μM, 100 μM, and 200 μM respectively. The IC50 values for inhibition of PI3Kβ by B591 were determined at indicated concentrations of ATP. In addition, B591 selectivity was tested against 39 kinases at Life Technologies.

[2] = biological target: AKT2 (PKB beta) (Homo sapiens, UniProt P31751)
Procedure: as §1

[3] = biological target: AKT3 (PKB gamma) (Homo sapiens, UniProt Q9Y243)
AKT3 (PKB gamma), sequence (Q9Y243 whole entry): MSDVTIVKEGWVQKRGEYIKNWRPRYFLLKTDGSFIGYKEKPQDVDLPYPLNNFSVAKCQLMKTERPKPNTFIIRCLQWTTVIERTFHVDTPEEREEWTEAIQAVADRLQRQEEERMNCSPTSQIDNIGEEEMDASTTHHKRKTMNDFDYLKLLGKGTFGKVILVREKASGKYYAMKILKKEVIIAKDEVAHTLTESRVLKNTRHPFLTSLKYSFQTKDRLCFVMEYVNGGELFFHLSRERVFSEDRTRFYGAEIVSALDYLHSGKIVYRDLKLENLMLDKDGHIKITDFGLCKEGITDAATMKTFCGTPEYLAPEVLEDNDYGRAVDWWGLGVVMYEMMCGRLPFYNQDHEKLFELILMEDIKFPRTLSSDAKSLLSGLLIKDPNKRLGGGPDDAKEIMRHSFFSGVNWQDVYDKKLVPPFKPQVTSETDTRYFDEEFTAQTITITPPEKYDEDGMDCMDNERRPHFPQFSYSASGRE
Procedure: as §1

[4] = biological target: AMPK A1/B1/G1 (Homo sapiens, UniProt P54619+Q13131+Q9Y478)
Procedure: as §1

[5] = biological target: AMPK A2/B1/G1 (Homo sapiens, UniProt P54619+P54646+Q9Y478)
AMPK A2/B1/G1, sequence (P54646 whole entry): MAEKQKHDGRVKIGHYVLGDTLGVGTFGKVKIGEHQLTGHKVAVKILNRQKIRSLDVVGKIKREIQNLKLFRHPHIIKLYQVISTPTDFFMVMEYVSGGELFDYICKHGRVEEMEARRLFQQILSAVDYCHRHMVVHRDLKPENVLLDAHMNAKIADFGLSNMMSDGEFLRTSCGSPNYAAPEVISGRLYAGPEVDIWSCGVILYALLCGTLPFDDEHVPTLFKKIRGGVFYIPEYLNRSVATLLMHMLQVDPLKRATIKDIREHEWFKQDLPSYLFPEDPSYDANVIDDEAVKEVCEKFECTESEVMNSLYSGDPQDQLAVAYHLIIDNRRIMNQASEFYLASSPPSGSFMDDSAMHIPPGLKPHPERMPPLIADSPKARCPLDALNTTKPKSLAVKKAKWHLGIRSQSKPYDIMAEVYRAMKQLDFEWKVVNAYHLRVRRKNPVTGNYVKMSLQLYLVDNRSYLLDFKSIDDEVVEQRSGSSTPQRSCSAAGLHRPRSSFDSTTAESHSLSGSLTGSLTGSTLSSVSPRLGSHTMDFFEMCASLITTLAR
AMPK A2/B1/G1, sequence (Q9Y478 whole entry partner): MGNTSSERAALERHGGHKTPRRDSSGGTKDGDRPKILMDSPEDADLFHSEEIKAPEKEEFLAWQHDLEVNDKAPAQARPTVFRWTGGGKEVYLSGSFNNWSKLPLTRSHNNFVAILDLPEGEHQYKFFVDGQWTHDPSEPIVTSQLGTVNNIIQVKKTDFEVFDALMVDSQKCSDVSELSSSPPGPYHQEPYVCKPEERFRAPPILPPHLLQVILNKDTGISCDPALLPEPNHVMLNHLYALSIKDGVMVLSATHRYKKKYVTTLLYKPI
AMPK A2/B1/G1, sequence (P54619 whole entry partner): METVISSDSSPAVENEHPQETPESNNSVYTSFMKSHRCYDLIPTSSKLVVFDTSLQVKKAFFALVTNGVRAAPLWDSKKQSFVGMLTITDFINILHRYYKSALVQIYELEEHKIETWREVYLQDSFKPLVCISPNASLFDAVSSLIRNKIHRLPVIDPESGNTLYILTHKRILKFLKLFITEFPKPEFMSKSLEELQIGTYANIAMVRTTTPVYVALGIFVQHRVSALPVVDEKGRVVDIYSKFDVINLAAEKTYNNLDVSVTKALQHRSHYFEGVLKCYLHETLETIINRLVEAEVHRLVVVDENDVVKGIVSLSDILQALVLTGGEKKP
Procedure: as §1

[6] = biological target: T1, EGFR (ErbB1) (Homo sapiens, UniProt P00533)
T1 construct: purchased Life Technologies
Procedure: as §1

[7] = biological target: T2, EPHA1 (Homo sapiens, UniProt P21709)
T2 construct: purchased Life Technologies
Procedure: as §1

[8] = biological target: T3, EPHA2 (Homo sapiens, UniProt P29317)
T3 construct: purchased Life Technologies
Procedure: as §1

[9] = biological target: T4, EPHA8 (Homo sapiens, UniProt P29322)
T4 construct: purchased Life Technologies
Procedure: as §1

[10] = biological target: T5, EPHB1 (Homo sapiens, UniProt P54762)
T5 construct: purchased Life Technologies
Procedure: as §1

[11] = biological target: T6, ERBB2 (HER2) (Homo sapiens, UniProt P04626)
T6 construct: purchased Life Technologies
Procedure: as §1

[12] = biological target: T7, FGFR1 (Homo sapiens, UniProt P11362)
T7 construct: purchased Life Technologies
Procedure: as §1

[13] = biological target: T8, FGFR2 (Homo sapiens, UniProt P21802)
T8 construct: purchased Life Technologies
T8 sequence (P21802 22-821): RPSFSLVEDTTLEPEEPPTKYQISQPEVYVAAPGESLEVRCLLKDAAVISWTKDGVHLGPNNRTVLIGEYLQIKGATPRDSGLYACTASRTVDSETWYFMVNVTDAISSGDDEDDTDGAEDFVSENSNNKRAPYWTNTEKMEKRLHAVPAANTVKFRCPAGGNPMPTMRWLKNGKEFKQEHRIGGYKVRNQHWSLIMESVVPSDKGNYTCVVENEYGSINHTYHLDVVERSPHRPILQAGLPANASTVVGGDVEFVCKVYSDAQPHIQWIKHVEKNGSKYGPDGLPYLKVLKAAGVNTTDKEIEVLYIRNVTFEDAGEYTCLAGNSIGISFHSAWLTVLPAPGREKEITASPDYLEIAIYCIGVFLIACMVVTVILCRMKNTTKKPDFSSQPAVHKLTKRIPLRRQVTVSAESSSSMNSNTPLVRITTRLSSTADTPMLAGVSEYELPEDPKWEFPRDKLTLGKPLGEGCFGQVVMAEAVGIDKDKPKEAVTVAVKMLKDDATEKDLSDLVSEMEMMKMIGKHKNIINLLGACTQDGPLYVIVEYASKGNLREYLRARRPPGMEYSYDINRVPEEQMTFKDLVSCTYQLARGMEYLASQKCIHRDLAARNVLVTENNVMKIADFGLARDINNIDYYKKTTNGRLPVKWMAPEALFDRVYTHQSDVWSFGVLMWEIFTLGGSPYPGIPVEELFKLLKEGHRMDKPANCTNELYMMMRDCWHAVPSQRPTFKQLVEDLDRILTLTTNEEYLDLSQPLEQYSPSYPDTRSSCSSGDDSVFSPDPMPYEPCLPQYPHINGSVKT
Procedure: as §1

[14] = biological target: T9, FGFR4 (Homo sapiens, UniProt P22455)
T9 construct: purchased Life Technologies
Procedure: as §1

[15] = biological target: T10, FLT1 (VEGFR1) (Homo sapiens, UniProt P17948)
T10 construct: purchased Life Technologies
Procedure: as §1

[16] = biological target: FRAP1 (mTOR) (Homo sapiens, UniProt P42345)
Procedure: as §1

[17] = biological target: GSK3A (GSK3 alpha) (Homo sapiens, UniProt P49840)
GSK3A (GSK3 alpha), sequence (P49840 whole entry): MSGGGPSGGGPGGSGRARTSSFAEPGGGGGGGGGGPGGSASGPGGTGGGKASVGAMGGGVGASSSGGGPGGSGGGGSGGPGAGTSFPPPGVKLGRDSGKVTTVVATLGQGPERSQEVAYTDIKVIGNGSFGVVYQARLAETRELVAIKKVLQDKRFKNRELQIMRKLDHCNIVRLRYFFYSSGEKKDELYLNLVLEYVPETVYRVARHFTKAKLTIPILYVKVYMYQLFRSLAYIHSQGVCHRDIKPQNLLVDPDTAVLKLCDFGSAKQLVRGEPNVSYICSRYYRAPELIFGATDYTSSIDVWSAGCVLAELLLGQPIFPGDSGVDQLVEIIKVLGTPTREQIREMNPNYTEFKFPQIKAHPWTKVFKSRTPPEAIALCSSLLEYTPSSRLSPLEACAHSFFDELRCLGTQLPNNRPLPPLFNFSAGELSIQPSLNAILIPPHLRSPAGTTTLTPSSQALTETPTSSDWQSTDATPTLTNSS
Procedure: as §1

[18] = biological target: GSK3B (GSK3 beta) (Homo sapiens, UniProt P49841)
Procedure: as §1

[19] = biological target: IGF1R (Homo sapiens, UniProt P08069)
Procedure: as §1

[20] = biological target: JAK1 (Homo sapiens, UniProt P23458)
Procedure: as §1

[21] = biological target: LYN A (Homo sapiens, UniProt P07948)
LYN A, sequence (P07948 whole entry): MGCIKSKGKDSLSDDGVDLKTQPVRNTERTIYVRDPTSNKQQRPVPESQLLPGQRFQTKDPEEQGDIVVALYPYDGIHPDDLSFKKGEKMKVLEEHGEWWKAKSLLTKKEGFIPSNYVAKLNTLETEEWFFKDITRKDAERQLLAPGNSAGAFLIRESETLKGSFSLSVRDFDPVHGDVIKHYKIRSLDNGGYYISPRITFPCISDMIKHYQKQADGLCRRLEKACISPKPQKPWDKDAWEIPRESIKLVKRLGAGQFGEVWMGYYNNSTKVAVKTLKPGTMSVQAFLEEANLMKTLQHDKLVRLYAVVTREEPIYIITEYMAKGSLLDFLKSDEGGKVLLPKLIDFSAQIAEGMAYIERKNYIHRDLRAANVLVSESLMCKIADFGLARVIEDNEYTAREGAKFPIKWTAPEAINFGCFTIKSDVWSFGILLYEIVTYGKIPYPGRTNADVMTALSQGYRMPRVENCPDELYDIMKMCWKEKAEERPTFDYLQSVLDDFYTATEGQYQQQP
Procedure: as §1

[22] = biological target: LYN B (Homo sapiens, UniProt P07948)
Procedure: as §1

[23] = biological target: T11, PDGFRA (PDGFR alpha) (Homo sapiens, UniProt P16234)
T11 construct: purchased Life Technologies
Procedure: as §1

[24] = biological target: T12, PDGFRB (PDGFR beta) (Homo sapiens, UniProt P09619)
T12 construct: purchased Life Technologies
Procedure: as §1

[25] = biological target: PDK1 (Homo sapiens, UniProt O15530)
Procedure: as §1

[26] = biological target: PIK3C2A (PI3K-C2 alpha) (Homo sapiens, UniProt O00443)
Procedure: as §1

[27] = biological target: PIK3C2B (PI3K-C2 beta) (Homo sapiens, UniProt O00750)
Procedure: as §1

[28] = biological target: PIK3C3 (hVPS34) (Homo sapiens, UniProt Q8NEB9)
Procedure: as §1

[29] = biological target: PRKCQ (PKC theta) (Homo sapiens, UniProt Q04759)
Procedure: as §1

[30] = biological target: T13, PRKCZ (PKC zeta) (Homo sapiens, UniProt Q05513)
T13 construct: purchased Life Technologies
Procedure: as §1

[31] = biological target: PTK2 (FAK) (Homo sapiens, UniProt Q05397)
PTK2 (FAK), sequence (Q05397 whole entry): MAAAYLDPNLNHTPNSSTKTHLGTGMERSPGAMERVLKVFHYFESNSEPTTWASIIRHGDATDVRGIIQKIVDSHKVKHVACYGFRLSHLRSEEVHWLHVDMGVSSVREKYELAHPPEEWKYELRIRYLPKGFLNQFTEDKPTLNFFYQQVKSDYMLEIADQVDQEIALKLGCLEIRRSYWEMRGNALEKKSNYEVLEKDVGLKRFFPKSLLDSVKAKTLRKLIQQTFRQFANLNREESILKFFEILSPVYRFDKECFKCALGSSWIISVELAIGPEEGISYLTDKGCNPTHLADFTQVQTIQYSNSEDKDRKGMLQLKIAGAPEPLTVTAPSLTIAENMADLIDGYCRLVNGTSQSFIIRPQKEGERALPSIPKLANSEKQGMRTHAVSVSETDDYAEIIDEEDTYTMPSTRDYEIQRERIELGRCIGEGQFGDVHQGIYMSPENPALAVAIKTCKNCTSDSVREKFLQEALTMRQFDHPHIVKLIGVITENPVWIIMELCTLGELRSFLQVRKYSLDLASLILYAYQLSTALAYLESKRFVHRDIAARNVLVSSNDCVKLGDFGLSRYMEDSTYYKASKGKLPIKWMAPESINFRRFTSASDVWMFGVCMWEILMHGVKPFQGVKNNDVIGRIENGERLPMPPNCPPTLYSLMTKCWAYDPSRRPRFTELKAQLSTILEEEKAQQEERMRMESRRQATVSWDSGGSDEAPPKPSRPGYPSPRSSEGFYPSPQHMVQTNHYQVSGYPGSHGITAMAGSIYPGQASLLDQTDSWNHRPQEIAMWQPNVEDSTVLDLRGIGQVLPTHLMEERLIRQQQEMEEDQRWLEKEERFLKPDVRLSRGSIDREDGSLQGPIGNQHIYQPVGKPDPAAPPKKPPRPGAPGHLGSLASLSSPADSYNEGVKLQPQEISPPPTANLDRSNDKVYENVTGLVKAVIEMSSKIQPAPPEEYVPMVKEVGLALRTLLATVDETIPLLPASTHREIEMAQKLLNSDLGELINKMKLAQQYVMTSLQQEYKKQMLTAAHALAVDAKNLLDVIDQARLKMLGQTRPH
Procedure: as §1

[32] = biological target: T14, RPS6KB1 (p70S6K) (Homo sapiens, UniProt P23443)
T14 construct: purchased Life Technologies
Procedure: as §1

[33] = biological target: T15, SRC (Homo sapiens, UniProt P12931)
T15 construct: purchased Life Technologies
T15 sequence (P12931 whole entry): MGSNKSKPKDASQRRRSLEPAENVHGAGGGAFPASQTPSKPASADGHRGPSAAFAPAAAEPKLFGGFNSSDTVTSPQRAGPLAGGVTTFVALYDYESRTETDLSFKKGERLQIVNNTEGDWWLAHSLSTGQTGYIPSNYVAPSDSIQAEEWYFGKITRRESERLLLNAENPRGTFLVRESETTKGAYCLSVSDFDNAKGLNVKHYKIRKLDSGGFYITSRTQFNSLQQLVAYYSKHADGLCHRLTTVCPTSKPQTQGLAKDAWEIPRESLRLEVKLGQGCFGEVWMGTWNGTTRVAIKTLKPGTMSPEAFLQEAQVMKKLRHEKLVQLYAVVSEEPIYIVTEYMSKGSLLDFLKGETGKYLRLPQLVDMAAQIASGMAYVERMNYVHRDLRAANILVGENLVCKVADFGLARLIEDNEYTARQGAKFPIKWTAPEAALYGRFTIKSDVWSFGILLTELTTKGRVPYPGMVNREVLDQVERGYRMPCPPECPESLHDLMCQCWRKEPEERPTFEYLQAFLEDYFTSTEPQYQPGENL
Procedure: as §1

[34] = biological target: SYK (Homo sapiens, UniProt P43405)
Procedure: as §1

What does the source list for `Cc1cc2c(cc1C)[n+](Cc1ccccc1Br)cn2Cc1ccc2c(c1)CCO2.[Br-]` [B591, 3-(2-bromobenzyl)-1-((2,3-dihydrobenzofuran-5-yl)methyl) -5,6-dimethyl-1H-benzo[d]imidazol-3-ium bromide]?
IC50 [1]: > 500 µM; IC50 [2]: > 500 µM; IC50 [3]: > 500 µM; IC50 [4]: > 500 µM; IC50 [5]: > 500 µM; IC50 [6]: > 500 µM; IC50 [7]: > 500 µM; IC50 [8]: > 500 µM; IC50 [9]: > 500 µM; IC50 [10]: > 500 µM; IC50 [11]: > 500 µM; IC50 [12]: > 500 µM; IC50 [13]: > 500 µM; IC50 [14]: > 500 µM; IC50 [15]: > 500 µM; IC50 [16]: > 500 µM; IC50 [17]: > 500 µM; IC50 [18]: > 500 µM; IC50 [19]: > 500 µM; IC50 [20]: > 500 µM; IC50 [21]: > 500 µM; IC50 [22]: > 500 µM; IC50 [23]: > 500 µM; IC50 [24]: > 500 µM; IC50 [25]: > 500 µM; IC50 [26]: 177 µM; IC50 [27]: 91 µM; IC50 [28]: 102 µM; IC50 [29]: > 500 µM; IC50 [30]: > 500 µM; IC50 [31]: > 500 µM; IC50 [32]: > 500 µM; IC50 [33]: > 500 µM; IC50 [34]: > 500 µM
